Source: article PMC9977398, “Next-generation membrane-active glycopeptide antibiotics that also inhibit bacterial cell division” (Chemical Science, 2023)
Where two headings read alike, the source gives them in different places.

Assays:
[1] = system: GFP-FtsZ expressing E. coli; assay: GFP-FtsZ localization and morphology; assay type: cell-based; conditions: 15 μM
Method: The FtsZ protein assembles into a membrane-associated ring structure at the division septum. It recruits other proteins for the progression and completion of cell division.[34] The effect of VanQAmC10 on the localization of FtsZ and morphology in E. coli producing green fluorescent protein (GFP)-tagged FtsZ was studied through microscopy (Fig. 5B). The cells were treated with IPTG to overexpress gfp-ftsZ and then either treated with compounds or left untreated. Upon treatment with 15 μM of VanQAmC10, the cells appear to be filamentous with variable lengths of up to 4 μm, while cells in the control group were ∼2.5 μm long. Incubation with VanQAmC10 for a longer time (130 minutes) results in bulkier filamentous cells, with severely distorted shapes (Fig. S4 ^†). […] IPTG-treated cells formed minicells of ∼1.5 μm length, which is characteristic of cells overproducing FtsZ.[35] Known inhibitors of FtsZ alter the regular midcell distribution of Z-rings.[36] […]
resuspended in prewarmed BMM media. […] The fluorescence in the GFP and Texas red channels was then observed under the microscope. […]
About 6 μl of sample was immobilized on 1% agarose pad . DIC and fluorescence images were obtained at different time intervals using Nikon Eclipse Ti Microscope equipped with Nikon DS-U3 camera through Plan Apo 100×/1.40 oil objective. […]

MRSA ATCC 33591 = assay: Activity in blood plasma and liver homogenate; assay type: cell-based, S. aureus; conditions: for MIC: Staphylococcus aureus
Method: Table S1: Activity of VanQAmC10 in mouse plasma and liver homogenate against MRSA […]
MIC of VanQAmC10 post incubation in (μM) […]
Activity in blood plasma and liver homogenate
To examine the susceptibility of VanQAmC10 to serum proteases, the antibacterial activities was tested in the presence of 50% of plasma and liver homogenate. Briefly, 250 μL of VanQAmC10 was added into 250 μL of fresh […] plasma and incubated at 37 °C. An aliquot of the samples 3 h and 24h post-incubation was diluted in 0.9% saline and the antibacterial activity (MIC) were determined against MRSA and VRE by following the same protocol as described above for the antibacterial assay. […]
50 μL of ∼10^6 CFU/mL bacterial inoculum (MRSA ATCC33591) was injected into the thigh. 1 h post-inoculation, animals were treated intraperitoneally twice with 12 h intervals with saline, vancomycin (12 mg kg−1), and VanQAmC10 (12 mg kg−1). 24 h post the first treatment, the animals were euthanized (using ether) and the thighs were collected aseptically. The thigh tissue was weighed and homogenized. The dilutions of the homogenate were plated onto agar plates, which were incubated overnight at about 37 °C. […]
In-vivo activity in murine burn wound infectionmodel 10-12

VRSA = assay: MIC against VRSA (strain not specified / strains taken together); assay type: cell-based, S. aureus; conditions: ratio of MICs
Method: The increase in the carbon content of substituted moieties from six (1) to seven (2 and 3) to ten (5) to twelve (4), increased activity.
VanQAmC14 (10): Yield 65%; HPLC purity 96%; 1H-NMR (400 MHz, DMSO-d6) δ/ppm:
Test compound was assayed in a micro -dilution broth format as per the CLSI guideline. The bacterial freeze dried stock samples were stored at -80 °C. About 5 μL of these stocks were added to 3 mL of the respective broth and the culture was grown for 6 h at 37°C with prior to the experiments. This 6 h grown culture was diluted to give effective cell concentration of 10 5 CFU/mL which was then used for determining MIC. Compounds were serially diluted 2 -fold, in sterile millipore water and 50 μL of these serial dilutions were added to the wells of 96 well plate followed by the addition of about 150 μL of bacterial solution. The plates were then incubated for 18-24 h at 37 °C. The O.D. value at 600 nm was recorded using TECAN (Infinite series, M200 pro) Plate Reade r. Each concentration had triplicate values and the whole experiment was done at least twice and the MIC value was determined by taking the average of triplicate O. D. values for each concentration and plotting it against concentration. The data was then subjected to sigmoidal fitting. From the curve the MIC value was determined, as the point where the O. D. was similar to that of control having no bacteria.

Compound	localization and distribution of Z-rings [1]	length of filamentous cells ([1]; 40 min, control cells ∼2.5 μm)	change of MIC in plasma and liver homogenate (MRSA ATCC 33591; MRSA)	MIC (MRSA ATCC 33591; read-out: MIC post incubation in plasma)	MIC (MRSA ATCC 33591; MRSA ATCC 33591, read-out: MIC post incubation in liver homogenate)	MIC (MRSA ATCC 33591; MRSA ATCC 33591, read-out: MIC post incubation in media)	fold increase in activity as compared to vancomycin against VRSA (VRSA)
CCCCCCCCCCNC(=O)C[N+](C)(C)CCCNC(=O)C1NC(=O)C2NC(=O)C(NC(=O)C3NC(=O)C(CC(N)=O)NC(=O)C(NC(=O)C(CC(C)C)NC)C(O)c4ccc(c(Cl)c4)Oc4cc3cc(c4OC3OC(CO)C(O)C(O)C3OC3CC(C)(N)C(O)C(C)O3)Oc3ccc(cc3Cl)C2O)c2ccc(O)c(c2)-c2c(O)cc(O)cc21 (stereo not shown) [VanQAmC10 (8)]	remain unaltered	up to 4 μm	remained unchanged	0.4 µM	0.4 µM	0.4 µM	
CNC(CC(C)C)C(=O)NC1C(=O)NC(CC(N)=O)C(=O)NC2C(=O)NC3C(=O)NC(C(=O)NC(C(=O)NCCC[N+](C)(C)Cc4ccc(-c5ccccc5)cc4)c4cc(O)cc(O)c4-c4cc3ccc4O)C(O)c3ccc(c(Cl)c3)Oc3cc2cc(c3OC2OC(CO)C(O)C(O)C2OC2CC(C)(N)C(O)C(C)O2)Oc2ccc(cc2Cl)C1O (stereo not shown) [VanQbiph (4)]							22 to 88 fold
